From patent US12077503B2, “Substituted cyclic amides and their use as herbicides” (FMC CORPORATION, priority 2015, dated 2024)

What was measured:
Format in all cases: in vivo
[1] = system: barnyardgrass (Echinochloa crus-galli); assay: Test G Pre-Emergence Protocol; settings: Echinochloa crus-galli, pre-emergence, 312 h, evaluated after 13 days; for pest or weed control at 15.625 g/ha: 15.625 g ai/ha, read-out: Barnyard grass damage rating (100=total damage to plant; 0=no damage to plant); for pest or weed control at 62.5 g/ha: 62.5 g ai/ha, 100=total damage to plant, 0=no damage to plant, read-out: plant damage rating, Barnyardgrass; for pest or weed control at 250 g/ha: 250 g ai/ha, read-out: Barnyardgrass damage rating (100=total damage to plant; 0=no damage to plant)
Summary of the method: (§1)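 Herbicidal effect was rated 13 days post-application on a scale where 100 equals total damage. Spraying took place the day after sowing, using 15.625, 62.5 or 250 g/ha of compound in a 50:50 acetone/water solution with 0.5% Tween 20.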

[2] = system: corn (Zea mays); assay: Test G Pre-Emergence Protocol; settings: Zea mays, pre-emergence, 312 h, evaluated after 13 days; for plant injury at 15.625 g/ha: 15.625 g ai/ha; for plant injury at 15.625 g/ha / plant injury at 250 g/ha: read-out: Corn damage rating (100=total damage to plant; 0=no damage to plant); for plant injury at 62.5 g/ha: 62.5 g ai/ha, 100=total damage to plant, 0=no damage to plant, read-out: plant damage rating, Corn; for plant injury at 250 g/ha: 250 g ai/ha
Summary of the method: as §1

[3] = system: giant foxtail (Setaria faberi); assay: Test G Pre-Emergence Protocol; settings: Setaria faberi, pre-emergence, 312 h, evaluated after 13 days; for pest or weed control at 15.625 g/ha: 15.625 g ai/ha; for pest or weed control at 15.625 g/ha / pest or weed control at 250 g/ha: read-out: Foxtail, Giant damage rating (100=total damage to plant; 0=no damage to plant); for pest or weed control at 62.5 g/ha: 62.5 g ai/ha, 100=total damage to plant, 0=no damage to plant, read-out: plant damage rating, Foxtail, Giant; for pest or weed control at 250 g/ha: 250 g ai/ha
Summary of the method: as §1

[4] = system: ivy-leaved morning glory (Ipomoea hederacea); assay: Test G Pre-Emergence Protocol; settings: Ipomoea, pre-emergence, 312 h, evaluated after 13 days; for pest or weed control at 15.625 g/ha: 15.625 g ai/ha, read-out: Morning-glory, Ivy-leaved damage rating (100=total damage to plant; 0=no damage to plant); for pest or weed control at 62.5 g/ha: 62.5 g ai/ha, 100=total damage to plant, 0=no damage to plant, read-out: plant damage rating, Morningglory, Ivy-leaved; for pest or weed control at 250 g/ha: 250 g ai/ha, read-out: Morningglory, Ivy-leaved damage rating (100=total damage to plant; 0=no damage to plant)
Summary of the method: as §1

[5] = system: redroot pigweed (Amaranthus retroflexus); assay: Test G Pre-Emergence Protocol; settings: Amaranthus retroflexus, pre-emergence, 312 h, evaluated after 13 days; for pest or weed control at 15.625 g/ha: 15.625 g ai/ha; for pest or weed control at 15.625 g/ha / pest or weed control at 250 g/ha: read-out: Pigweed, Redroot damage rating (100=total damage to plant; 0=no damage to plant); for pest or weed control at 62.5 g/ha: 62.5 g ai/ha, 100=total damage to plant, 0=no damage to plant, read-out: plant damage rating, Pigweed, Redroot; for pest or weed control at 250 g/ha: 250 g ai/ha
Summary of the method: as §1

[6] = system: velvetleaf (Abutilon theophrasti); assay: Test G Pre-Emergence Protocol; settings: Abutilon theophrasti, pre-emergence, 312 h, evaluated after 13 days; for pest or weed control at 15.625 g/ha: 15.625 g ai/ha; for pest or weed control at 15.625 g/ha / pest or weed control at 250 g/ha: read-out: Velvetleaf damage rating (100=total damage to plant; 0=no damage to plant); for pest or weed control at 62.5 g/ha: 62.5 g ai/ha, 100=total damage to plant, 0=no damage to plant, read-out: plant damage rating, Velvetleaf; for pest or weed control at 250 g/ha: 250 g ai/ha
Summary of the method: as §1

[7] = system: barnyardgrass (Echinochloa crus-galli); assay: Test G Post-Emergence Protocol; settings: Echinochloa crus-galli, post-emergence, 312 h; for pest or weed control at 15.625 g/ha: 15.625 g ai/ha, evaluated after 13 days (100=total damage to plant; 0=no damage to plant), read-out: Barnyardgrass damage rating; for pest or weed control at 62.5 g/ha: 62.5 g ai/ha, read-out: Barnyardgrass damage rating (100=total damage to plant; 0=no damage to plant); for pest or weed control at 62.5 g/ha / pest or weed control at 250 g/ha: evaluated after 13 days; for pest or weed control at 250 g/ha: 250 g ai/ha, read-out: damage to plant, Barnyardgrass (100=total damage to plant; 0=no damage to plant)
Summary of the method: (§2)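 Values are percent visual injury at 13 days after treatment (0 none, 100 total). Treatment was a post-emergence spray at 15.625, 62.5 or 250 g/ha on 8-day-old pot plants kept at 24/16 °C.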

[8] = system: corn (Zea mays); assay: Test G Post-Emergence Protocol; settings: Zea mays, post-emergence, 312 h; for plant injury at 15.625 g/ha: 15.625 g ai/ha, evaluated after 13 days (100=total damage to plant; 0=no damage to plant), read-out: Corn damage rating; for plant injury at 62.5 g/ha: 62.5 g ai/ha, read-out: Corn damage rating (100=total damage to plant; 0=no damage to plant); for plant injury at 62.5 g/ha / plant injury at 250 g/ha: evaluated after 13 days; for plant injury at 250 g/ha: 250 g ai/ha, read-out: damage to plant, Corn (100=total damage to plant; 0=no damage to plant)
Summary of the method: as §2

[9] = system: giant foxtail (Setaria faberi); assay: Test G Post-Emergence Protocol; settings: Setaria faberi, post-emergence, 312 h; for pest or weed control at 15.625 g/ha: 15.625 g ai/ha, evaluated after 13 days (100=total damage to plant; 0=no damage to plant), read-out: Foxtail, Giant damage rating; for pest or weed control at 62.5 g/ha: 62.5 g ai/ha, read-out: Foxtail, Giant damage rating (100=total damage to plant; 0=no damage to plant); for pest or weed control at 62.5 g/ha / pest or weed control at 250 g/ha: evaluated after 13 days; for pest or weed control at 250 g/ha: 250 g ai/ha, read-out: damage to plant, Foxtail, Giant (100=total damage to plant; 0=no damage to plant)
Summary of the method: as §2

[10] = system: ivy-leaved morning glory (Ipomoea hederacea); assay: Test G Post-Emergence Protocol; settings: Ipomoea, post-emergence, 312 h; for pest or weed control at 15.625 g/ha: 15.625 g ai/ha, evaluated after 13 days (100=total damage to plant; 0=no damage to plant), read-out: Morningglory, Ivy-leaved damage rating; for pest or weed control at 62.5 g/ha: 62.5 g ai/ha, read-out: Morningglory, Ivy-leaved damage rating (100=total damage to plant; 0=no damage to plant); for pest or weed control at 62.5 g/ha / pest or weed control at 250 g/ha: evaluated after 13 days; for pest or weed control at 250 g/ha: 250 g ai/ha, read-out: damage to plant, Morningglory, Ivy-leaved (100=total damage to plant; 0=no damage to plant)
Summary of the method: as §2

[11] = system: redroot pigweed (Amaranthus retroflexus); assay: Test G Post-Emergence Protocol; settings: Amaranthus retroflexus, post-emergence, 312 h; for pest or weed control at 15.625 g/ha: 15.625 g ai/ha, evaluated after 13 days (100=total damage to plant; 0=no damage to plant), read-out: Pigweed, Redroot damage rating; for pest or weed control at 62.5 g/ha: 62.5 g ai/ha, read-out: Pigweed, Redroot damage rating (100=total damage to plant; 0=no damage to plant); for pest or weed control at 62.5 g/ha / pest or weed control at 250 g/ha: evaluated after 13 days; for pest or weed control at 250 g/ha: 250 g ai/ha, read-out: damage to plant, Pigweed, Redroot (100=total damage to plant; 0=no damage to plant)
Summary of the method: as §2

[12] = system: velvetleaf (Abutilon theophrasti); assay: Test G Post-Emergence Protocol; settings: Abutilon theophrasti, post-emergence, 312 h; for pest or weed control at 15.625 g/ha: 15.625 g ai/ha, evaluated after 13 days (100=total damage to plant; 0=no damage to plant), read-out: Velvetleaf damage rating; for pest or weed control at 62.5 g/ha: 62.5 g ai/ha, read-out: Velvetleaf damage rating (100=total damage to plant; 0=no damage to plant); for pest or weed control at 62.5 g/ha / pest or weed control at 250 g/ha: evaluated after 13 days; for pest or weed control at 250 g/ha: 250 g ai/ha, read-out: damage to plant, Velvetleaf (100=total damage to plant; 0=no damage to plant)
Summary of the method: as §2

| SMILES | pest or weed control at 15.625 g/ha [1] | pest or weed control at 62.5 g/ha [1] | pest or weed control at 250 g/ha [1] | plant injury at 15.625 g/ha [2] | plant injury at 62.5 g/ha [2] | plant injury at 250 g/ha [2] | pest or weed control at 15.625 g/ha [3] | pest or weed control at 62.5 g/ha [3] | pest or weed control at 250 g/ha [3] | pest or weed control at 15.625 g/ha [4] | pest or weed control at 62.5 g/ha [4] | pest or weed control at 250 g/ha [4] | pest or weed control at 15.625 g/ha [5] | pest or weed control at 62.5 g/ha [5] | pest or weed control at 250 g/ha [5] | pest or weed control at 15.625 g/ha [6] | pest or weed control at 62.5 g/ha [6] | pest or weed control at 250 g/ha [6] | pest or weed control at 15.625 g/ha [7] | pest or weed control at 62.5 g/ha [7] | further results |
| --- | --- | --- | --- | --- | --- | --- | --- | --- | --- | --- | --- | --- | --- | --- | --- | --- | --- | --- | --- | --- | --- |
| Cc1ccc(NC(=O)[C@H]2C(=O)N(C)C[C@@H]2c2ccc(C(F)(F)F)cc2)c(C)c1 (racemic) [Compound 1410] | 0% | 0% | 20% | 0% | 0% | 0% | 0% | 0% | 80% | 0% | 0% | 10% | 0% | 20% | 10% | 0% | 10% | 20% | 0% | 0% | pest or weed control at 250 g/ha [7]: 20%; plant injury at 15.625 g/ha [8]: 0%; plant injury at 62.5 g/ha [8]: 0%; plant injury at 250 g/ha [8]: 10%; pest or weed control at 15.625 g/ha [9]: 0%; pest or weed control at 62.5 g/ha [9]: 0%; pest or weed control at 250 g/ha [9]: 50%; pest or weed control at 15.625 g/ha [10]: 0%; pest or weed control at 62.5 g/ha [10]: 0%; pest or weed control at 250 g/ha [10]: 20%; pest or weed control at 15.625 g/ha [11]: 0%; pest or weed control at 62.5 g/ha [11]: 0%; pest or weed control at 250 g/ha [11]: 10%; pest or weed control at 15.625 g/ha [12]: 0%; pest or weed control at 62.5 g/ha [12]: 0%; pest or weed control at 250 g/ha [12]: 0% |
| Cc1cccc(NC(=O)[C@H]2C(=O)N(C)C[C@@H]2c2ccc(C(F)(F)F)cc2)c1C#N (racemic) [Compound 1413] | 0% | 20% | 80% | 0% | 0% | 0% | 0% | 60% | 90% | 0% | 0% | 0% | 0% | 20% | 20% | 0% | 0% | 0% | 20% | 50% | pest or weed control at 250 g/ha [7]: 60%; plant injury at 15.625 g/ha [8]: 0%; plant injury at 62.5 g/ha [8]: 0%; plant injury at 250 g/ha [8]: 0%; pest or weed control at 15.625 g/ha [9]: 40%; pest or weed control at 62.5 g/ha [9]: 70%; pest or weed control at 250 g/ha [9]: 70%; pest or weed control at 15.625 g/ha [10]: 0%; pest or weed control at 62.5 g/ha [10]: 0%; pest or weed control at 250 g/ha [10]: 0%; pest or weed control at 15.625 g/ha [11]: 0%; pest or weed control at 62.5 g/ha [11]: 10%; pest or weed control at 250 g/ha [11]: 20%; pest or weed control at 15.625 g/ha [12]: 0%; pest or weed control at 62.5 g/ha [12]: 0%; pest or weed control at 250 g/ha [12]: 10% |
| CN1C[C@@H](c2ccc(C(F)(F)F)cc2)[C@H](C(=O)Nc2cccnn2)C1=O (racemic) [Compound 1577] | 0% | 0% | 0% | 0% | 0% | 0% | 0% | 0% | 0% | 0% | 0% | 0% | 0% | 0% | 0% | 0% | 0% | 0% | 0% | 0% | pest or weed control at 250 g/ha [7]: 0%; plant injury at 15.625 g/ha [8]: 0%; plant injury at 62.5 g/ha [8]: 0%; plant injury at 250 g/ha [8]: 0%; pest or weed control at 15.625 g/ha [9]: 0%; pest or weed control at 62.5 g/ha [9]: 0%; pest or weed control at 250 g/ha [9]: 0%; pest or weed control at 15.625 g/ha [10]: 0%; pest or weed control at 62.5 g/ha [10]: 0%; pest or weed control at 250 g/ha [10]: 0%; pest or weed control at 15.625 g/ha [11]: 0%; pest or weed control at 62.5 g/ha [11]: 0%; pest or weed control at 250 g/ha [11]: 0%; pest or weed control at 15.625 g/ha [12]: 0%; pest or weed control at 62.5 g/ha [12]: 0%; pest or weed control at 250 g/ha [12]: 0% |
